Data on 10 compounds can be found in patent publication US7867749B2, “Nematode phosphoethanolamine N-methyltransferase-like sequences” (priority 2006, dated 2011).

Data set [1] concerns A. ellesmerensis. Description: Nematicidal activity against other nematodes. In kind it is in vivo, Acrobiloides ellesmerensis.
Data set [2] deals with C. elegans. Description: Nematicidal activity of ethanolamine-like compounds against C. elegans. In kind it is in vivo, Caenorhabditis elegans. The conditions noted are these: P0 L4 larva; for F1 PHENOTYPE: 23° C.; for nematicidal activity against C. elegans: various concentrations.
In data set [3] the test system is M. incognita. In kind it is in vivo, Meloidogyne incongnita. The settings on record: J2 larvae soaked 48 hours. How it is done:
(§1) The ethanolamine-like compounds mentioned above are also nematicidal against the plant parasites Meloidogyne incongnita and Meloidogyne javanica. Between 25 and 50 J2 stage larvae were soaked in the compounds for 48 hours at the indicated concentrations. After the treatment, the larvae were moved to an agar plate containing NGM. Worms that crawl away from the application spot are scored as alive while those that remain at the application spot are scored as dead. The three compounds that were nematicidal against C. elegans were also nematicidal against M. incognita and M. javanica

Data set [4] has as its system Cephalobus sp. Description: Nematicidal activity against other nematodes. In kind it is in vivo.
For data set [5], the system named is C. elegans. Description: Chemical rescue of the PEAMT2 RNAi-generated phenotype (feeding). In kind it is in vivo, Caenorhabditis elegans. The conditions noted are these: for rescue of PEAMT2 RNAi phenotype: chemical complementation, singly or in combination, concentration not given.
Data set [6] deals with C. elegans. The experiment in a line: Chemical rescue of the PEAMT1 RNAi-generated phenotype (feeding). In kind it is in vivo, Caenorhabditis elegans. The conditions noted are these: for suppression of PEAMT1 larval lethal RNAi phenotype: chemical complementation, concentration not given; for rescue of PEAMT1 mutants (RNAi-generated): 5 mM.
The target in data set [7] is T1, C. elegans PEAMT2 (DIV3202) (Caenorhabditis elegans, UniProt Q22993).
T1 sequence (Q22993 1-437): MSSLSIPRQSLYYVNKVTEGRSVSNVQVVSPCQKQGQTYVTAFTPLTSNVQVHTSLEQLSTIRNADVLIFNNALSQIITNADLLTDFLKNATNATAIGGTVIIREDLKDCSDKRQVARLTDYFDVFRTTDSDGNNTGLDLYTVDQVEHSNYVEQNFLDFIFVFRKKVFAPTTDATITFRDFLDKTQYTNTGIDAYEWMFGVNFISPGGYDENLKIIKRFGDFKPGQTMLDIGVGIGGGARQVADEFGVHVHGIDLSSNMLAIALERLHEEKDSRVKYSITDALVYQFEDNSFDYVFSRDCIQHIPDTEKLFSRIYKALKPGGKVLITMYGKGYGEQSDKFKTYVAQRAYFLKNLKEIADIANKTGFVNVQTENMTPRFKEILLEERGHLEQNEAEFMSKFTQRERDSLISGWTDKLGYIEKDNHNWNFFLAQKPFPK
The experiment in a line: Km determination, radiochemical PEAMT assay. In kind it is biochemical. The conditions noted are these: 118 nM DIV3202H+.

The target of data set [8] is T2, C. elegans PEAMT1 (DIV3441) (Caenorhabditis elegans, UniProt Q23552).
T2 construct: HIS tag (pET28a) (N); made in house; host or cells: bacterial culture, IPTG-induced pET28a
T2 sequence (Q23552 1-475): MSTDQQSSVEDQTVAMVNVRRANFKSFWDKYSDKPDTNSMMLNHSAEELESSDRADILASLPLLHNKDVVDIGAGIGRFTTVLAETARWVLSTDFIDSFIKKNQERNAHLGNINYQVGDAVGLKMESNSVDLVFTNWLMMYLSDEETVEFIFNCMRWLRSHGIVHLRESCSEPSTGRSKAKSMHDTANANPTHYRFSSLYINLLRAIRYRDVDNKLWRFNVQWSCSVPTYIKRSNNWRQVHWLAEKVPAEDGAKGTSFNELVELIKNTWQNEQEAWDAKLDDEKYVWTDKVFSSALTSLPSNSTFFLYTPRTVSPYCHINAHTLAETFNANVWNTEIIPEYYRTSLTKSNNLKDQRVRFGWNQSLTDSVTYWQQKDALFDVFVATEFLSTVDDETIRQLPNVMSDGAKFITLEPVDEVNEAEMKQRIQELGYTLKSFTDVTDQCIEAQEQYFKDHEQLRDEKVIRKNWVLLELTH
Description: Km determination, radiochemical PEAMT assay. In kind it is biochemical.

For data set [9], the system named is everted hamster jejunal and ileal segments. The conditions noted are these: cited from earlier work.
Data set [10] relates to isolated intestinal epithelial cells. The settings on record: cited from earlier work.
Data set [11] concerns M. javanica. Description: Nematicidal activity against plant parasites, J2 larvae soak. In kind it is in vivo, Meloidogyne javanica. The conditions noted are these: 15 mM; J2 larvae soaked 48 hours. The protocol:
as §1

[12] abbreviates: P0 L4, 5 or 10 mM in plate media.

Read-outs that look alike come from different tables or passages of the source.

On to `N[C@@H](CO)Cc1ccccc1` [D-phenylalaninol], for which the “F1 PHENOTYPE” value in data set [1] (12.5 mM), in data set [2] (10 mM) and in [4] (12.5 mM) was “L1/L2 arrest/lethality” each time. Moreover, the “nematicidal activity against C. elegans” value in data set [2] is recorded as “showed nematicidal activity”. Further, the “% DEAD WORMS” value in data set [3] (25 mM) was 100%.
Turning to `NCCO` [ethanolamine (EA), ethanolamine], in data set [5] (P0 L4, 10 mM in plate media), the “F1 phenotype, PEAMT2 dsRNA” value is on record as “L1/L2 arrest/lethality”. Moreover, in [5], the “rescue of PEAMT2 RNAi phenotype” value was “not”. For the same compound, the “F1 phenotype, PEAMT1 dsRNA” value in data set [6] (P0 L4, 10 mM in plate media) is “L1/L2 arrest/lethality”. Also, the “suppression of PEAMT1 larval lethal RNAi phenotype” value in data set [6] is listed as “not”.
Consider `NCC(O)c1ccccc1` (stereo not drawn) [2-amino-1-phenylethanol], for which the “F1 PHENOTYPE” value in [2] (25 mM) was “Wild-type development”. Besides, the “nematicidal activity against C. elegans” value in [2] is listed as “no nematicidal effect”.
As a reminder, the Km is the substrate concentration at which the rate is half of its maximum. Take `C[S+](CC[C@H](N)C(=O)O)C[C@H]1O[C@@H](n2cnc3c(N)ncnc32)[C@H](O)[C@@H]1O` (stereo partly drawn) [S-adenosyl-L-methionine]: the Km in [7] (10 mM DME, 0.004-3 mM SAM, read-out: Km of S-adenosyl-L-methionine for DIV3202H+ (PEAMT2H+; intact HIS tag)) came to 167 ± 34.6 µM; in [7] (30 mM MME, 0.004-3 mM SAM, read-out: Km of S-adenosyl-L-methionine for DIV3202H+ (PEAMT2H+; intact HIS tag)), 163 ± 42.4 µM; in data set [8] (read-out: Km of S-adenosyl-L-methionine for DIV3441H+ (PEAMT1H+; intact HIS tag)), 62.5 ± 9.68 µM; in [8] (read-out: Km of S-adenosyl-L-methionine for DIV3441H− (PEAMT1H−; cleaved HIS tag)) it was 146 ± 31.1 µM.
As for `CNCCO` [MME, monomethylethanolamine], the “F1 phenotype, PEAMT2 dsRNA” value in data set [5] (setting [12]) was “L1/L2 arrest/lethality”. For the same compound, the “rescue of PEAMT2 RNAi phenotype” value in [5] is given as “not”. For the same compound, in data set [6], the “rescue of PEAMT1 mutants (RNAi-generated)” value is on record as “rescued” and the “suppression of PEAMT1 larval lethal RNAi phenotype” value was “suppressed”. Moreover, in data set [6] (setting [12]), the “F1 phenotype, PEAMT1 dsRNA” value was “Fertile adults”. The Km in data set [7] (1 mM SAM, 0.15-20 mM MME, read-out: Km of MME for DIV3202H+ (PEAMT2H+; intact HIS tag)) stood at 2.1 ± 0.97 µM.
In the case of `CCCCCC[C@@H](O)C/C=C\CCCCCCCC(=O)O` [Ricinoleic acid], the “effect on water and electrolyte absorption” value in data set [9] was “inhibitory effect”. For the same compound, the cytotoxicity result in data set [10] is on record as “cytotoxic”.
Take `OCCNc1ccccc1` [N-(2-hydroxyethyl)aniline]: in [2] (10 mM), the “F1 PHENOTYPE” value is “L1/L2 arrest/lethality”. The “nematicidal activity against C. elegans” value in [2] is recorded as “showed nematicidal activity”.
`CN(C)CCO` [DME, dimethylethanolamine]: the “F1 phenotype, PEAMT2 dsRNA” value in [5] (P0 Dauer, 10 mM in plate media) is on record as “Sterility”; in [5] (P0 L1, 10 mM in plate media) it was “Sterility”; in data set [5] (setting [12]) it was “L1/L2 arrest/lethality”. The “rescue of PEAMT2 RNAi phenotype” value in data set [5] is reported as “not”. In addition, the “rescue of PEAMT1 mutants (RNAi-generated)” value in data set [6] is given as “rescued”. In addition, the “rescue of sterility associated with PEAMT1 RNAi” value in data set [6] (Five mM) was “rescues the sterility”. Also, the “F1 phenotype, PEAMT1 dsRNA” value in [6] (P0 Dauer, 10 mM in plate media) is listed as “Fertile adults”; in data set [6] (P0 L1, 10 mM in plate media), “Fertile adults”; in data set [6] (setting [12]), “Fertile adults”. Further, the Km in [7] (1 mM SAM, 0.05-10 mM DME, read-out: Km of DME for DIV3202H+ (PEAMT2H+; intact HIS tag)) stood at 1.39 ± 0.26 µM.
For `CCCCCC[C@@H](O)C/C=C\CCCCCCCC(=O)OC` [methyl ester of ricinoleic acid], the “effect on water and electrolyte absorption” value in data set [9] is recorded as “ineffective”.
On to `CC(C)(C)NCCO` [2-(tert-butylamino)ethanol], for which the “% DEAD WORMS” value in data set [11] and in data set [3] (5 mM) was 50% each time. Also, the “F1 PHENOTYPE” value in [1] (10 mM), in data set [2] (10 mM) and in data set [4] (10 mM) was “L1/L2 arrest/lethality” in each case. For the same compound, the “nematicidal activity against C. elegans” value in [2] was “showed nematicidal activity”.
